In patent US20080026996A1, “Selective Vpac2 Receptor Reptide Agonists” (ELI LILLY AND COMPANY, priority 2004, published 2008):
Where no end group is shown, it is not given here. [ ]: non-standard residue; d: D form. The star is where a group is joined. Hexanoyl = CCCCCC(=O)*; Aib = CC(C)(N)C(=O)O

T1: rat VPAC1 receptor (Rattus norvegicus, UniProt P30083)
T1 sequence (P30083 31-459): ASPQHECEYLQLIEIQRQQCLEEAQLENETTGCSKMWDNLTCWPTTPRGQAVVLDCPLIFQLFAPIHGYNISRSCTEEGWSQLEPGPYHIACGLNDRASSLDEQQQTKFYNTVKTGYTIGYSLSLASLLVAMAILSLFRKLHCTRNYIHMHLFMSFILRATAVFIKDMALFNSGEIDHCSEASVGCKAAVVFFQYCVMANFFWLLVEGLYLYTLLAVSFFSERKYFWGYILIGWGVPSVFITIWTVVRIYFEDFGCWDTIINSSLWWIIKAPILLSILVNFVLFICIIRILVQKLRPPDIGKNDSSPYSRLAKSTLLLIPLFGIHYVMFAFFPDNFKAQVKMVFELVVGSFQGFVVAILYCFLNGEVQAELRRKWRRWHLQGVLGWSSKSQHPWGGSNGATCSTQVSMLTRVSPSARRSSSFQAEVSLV

T2: human VPAC2 (Homo sapiens, UniProt P41587)
T2 construct: expressed in transfected cells
T2 sequence (P41587 24-438): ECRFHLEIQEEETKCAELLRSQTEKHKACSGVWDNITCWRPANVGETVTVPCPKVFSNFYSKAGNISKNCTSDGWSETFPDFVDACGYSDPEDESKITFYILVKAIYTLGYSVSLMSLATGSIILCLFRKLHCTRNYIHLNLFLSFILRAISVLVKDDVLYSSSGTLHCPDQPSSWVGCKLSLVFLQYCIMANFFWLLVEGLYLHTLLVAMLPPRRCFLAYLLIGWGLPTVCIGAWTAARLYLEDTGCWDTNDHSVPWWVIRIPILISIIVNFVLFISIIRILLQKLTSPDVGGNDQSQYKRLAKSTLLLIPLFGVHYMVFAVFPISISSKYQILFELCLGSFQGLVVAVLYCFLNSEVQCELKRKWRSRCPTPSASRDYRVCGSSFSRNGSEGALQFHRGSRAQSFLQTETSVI

T3: human VPAC1 (Homo sapiens, UniProt P32241)
T3 sequence (P32241 31-457): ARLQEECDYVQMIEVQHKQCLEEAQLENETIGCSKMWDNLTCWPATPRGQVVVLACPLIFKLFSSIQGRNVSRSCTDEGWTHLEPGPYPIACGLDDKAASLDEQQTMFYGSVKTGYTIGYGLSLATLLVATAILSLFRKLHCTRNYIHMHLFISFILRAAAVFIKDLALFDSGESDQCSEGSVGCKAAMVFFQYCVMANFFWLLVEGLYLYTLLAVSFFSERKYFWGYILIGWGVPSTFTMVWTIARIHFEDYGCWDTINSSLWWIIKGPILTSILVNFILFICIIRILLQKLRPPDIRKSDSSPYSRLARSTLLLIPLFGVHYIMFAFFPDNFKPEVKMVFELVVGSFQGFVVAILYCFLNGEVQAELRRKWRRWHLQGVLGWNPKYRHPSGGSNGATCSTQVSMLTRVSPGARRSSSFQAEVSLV

T4: human PAC1 (Homo sapiens, UniProt P41586)
T4 sequence (P41586 21-468): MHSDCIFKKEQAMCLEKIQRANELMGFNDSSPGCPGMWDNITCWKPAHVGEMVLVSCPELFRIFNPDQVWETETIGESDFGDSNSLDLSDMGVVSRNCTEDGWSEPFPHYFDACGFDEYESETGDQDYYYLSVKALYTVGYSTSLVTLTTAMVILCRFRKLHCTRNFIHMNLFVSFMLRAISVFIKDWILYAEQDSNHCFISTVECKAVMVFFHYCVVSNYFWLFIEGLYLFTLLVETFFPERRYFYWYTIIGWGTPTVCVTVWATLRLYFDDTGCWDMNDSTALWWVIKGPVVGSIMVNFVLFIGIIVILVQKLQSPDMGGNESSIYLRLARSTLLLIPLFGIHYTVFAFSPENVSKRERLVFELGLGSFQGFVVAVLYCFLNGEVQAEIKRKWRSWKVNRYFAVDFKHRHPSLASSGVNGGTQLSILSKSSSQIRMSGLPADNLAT

T5: rat VPAC2 receptor (Rattus norvegicus, UniProt P35000)
T5 sequence (P35000 23-437): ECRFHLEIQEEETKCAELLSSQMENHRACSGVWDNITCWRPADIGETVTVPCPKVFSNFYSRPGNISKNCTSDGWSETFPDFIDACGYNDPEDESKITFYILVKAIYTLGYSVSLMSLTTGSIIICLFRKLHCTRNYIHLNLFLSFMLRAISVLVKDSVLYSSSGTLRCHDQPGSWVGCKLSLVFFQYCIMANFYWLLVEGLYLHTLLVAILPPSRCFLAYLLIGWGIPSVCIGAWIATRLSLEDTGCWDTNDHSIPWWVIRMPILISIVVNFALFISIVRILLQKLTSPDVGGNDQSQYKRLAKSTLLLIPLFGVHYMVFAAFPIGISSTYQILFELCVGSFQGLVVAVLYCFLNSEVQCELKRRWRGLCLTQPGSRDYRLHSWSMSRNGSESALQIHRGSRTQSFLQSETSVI

T6: rat VPAC2 receptor (rat, UniProt P35000 23-437)
T6 construct: whole, on cells; transfected CHO-PO cells in DiscoveRx
T6 sequence (looked up): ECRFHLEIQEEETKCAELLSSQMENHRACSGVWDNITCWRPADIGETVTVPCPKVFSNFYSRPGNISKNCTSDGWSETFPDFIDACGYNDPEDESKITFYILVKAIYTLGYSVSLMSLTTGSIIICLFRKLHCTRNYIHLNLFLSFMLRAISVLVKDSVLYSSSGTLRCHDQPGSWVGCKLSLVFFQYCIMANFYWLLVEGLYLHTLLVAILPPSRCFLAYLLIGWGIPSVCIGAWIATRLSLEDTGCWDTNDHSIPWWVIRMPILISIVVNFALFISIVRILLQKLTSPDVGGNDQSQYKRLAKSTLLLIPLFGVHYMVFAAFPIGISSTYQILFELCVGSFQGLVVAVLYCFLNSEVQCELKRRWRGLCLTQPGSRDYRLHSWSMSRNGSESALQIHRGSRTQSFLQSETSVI

T7: human VPAC2 receptor (human, UniProt P41587 24-438)
T7 sequence (looked up): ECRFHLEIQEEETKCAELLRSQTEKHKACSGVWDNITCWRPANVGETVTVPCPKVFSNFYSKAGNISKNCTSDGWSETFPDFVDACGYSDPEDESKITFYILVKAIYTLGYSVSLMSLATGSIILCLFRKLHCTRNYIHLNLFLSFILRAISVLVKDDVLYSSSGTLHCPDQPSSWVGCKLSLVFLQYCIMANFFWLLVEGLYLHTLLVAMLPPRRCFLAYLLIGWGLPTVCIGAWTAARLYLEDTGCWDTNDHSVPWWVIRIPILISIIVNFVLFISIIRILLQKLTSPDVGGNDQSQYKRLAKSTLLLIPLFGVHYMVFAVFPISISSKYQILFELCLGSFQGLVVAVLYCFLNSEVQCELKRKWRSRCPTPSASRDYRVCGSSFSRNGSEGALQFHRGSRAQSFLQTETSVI

T8: rat VPAC1 receptor (rat, UniProt P30083 31-459)
T8 sequence (looked up): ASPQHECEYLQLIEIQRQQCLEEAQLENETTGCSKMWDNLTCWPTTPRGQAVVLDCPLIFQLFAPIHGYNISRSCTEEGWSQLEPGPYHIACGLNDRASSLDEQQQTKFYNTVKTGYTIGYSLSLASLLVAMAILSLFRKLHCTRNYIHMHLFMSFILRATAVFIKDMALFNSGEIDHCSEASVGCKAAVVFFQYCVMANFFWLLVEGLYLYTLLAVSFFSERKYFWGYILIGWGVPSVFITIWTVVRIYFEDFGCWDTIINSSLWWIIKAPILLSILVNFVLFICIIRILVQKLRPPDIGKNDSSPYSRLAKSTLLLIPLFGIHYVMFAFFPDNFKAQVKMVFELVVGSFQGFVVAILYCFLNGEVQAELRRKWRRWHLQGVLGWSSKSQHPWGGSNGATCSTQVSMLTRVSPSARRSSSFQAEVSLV


Legend:
rat VPAC1 receptor [1] = molecular target: T1, rat VPAC1 receptor; assay: DiscoveRx in vitro potency, CHO-PO cells transiently transfected with rat VPAC 1 receptor DNA; assay type: cell-based; design: expressed in transfected cells; host or cells: CHO-PO, transient
Method: (§1) Also, the cells are washed twice. […] The stimuli are present for 30 minutes. Then, the assay buffer is gently removed.

human VPAC2 [2] = molecular target: T2, human VPAC2; assay: Filter binding assay, membranes of stable VPAC2 cell line, 125I-labeled VIP tracer (Table 2); conditions: read-out: Human VPAC2 Receptor Binding
Summary of the method: (§2)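 Membranes 2.5 μg/well; tracer ~40000 cpm; buffer 25 mM HEPES pH 7.4, 0.5% protease-free BSA; 1 h incubation, shaking. Glass-fibre filtration (0.5% polyethyleneamine presoak, 0.2% BSA block), 3× HEPES wash, dry 1 h at 60° C, scintillation count.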

human VPAC1 = molecular target: T3, human VPAC1; assay: Filter binding assay, membranes of cells transiently transfected with human VPAC1, 125I-labeled VIP tracer (Table 2); design: expressed in transfected cells; conditions: read-out: Human VPAC1 Receptor Binding
Summary of the method: as §2

human VPAC2 [3] = molecular target: T2, human VPAC2; assay: Alpha screen cAMP in vitro potency, human VPAC2 receptor; assay type: cell-based; conditions: cAMP generation; single result from two analyses performed in a single run; read-out: Human VPAC2 Receptor: Alpha Screen EC50
Summary of the method: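 Stimulated cAMP accumulation is read by AlphaScreen after 60 min exposure of 50,000 non-enzymatically harvested cells to compound, followed by lysis with donor beads.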

human PAC1 = molecular target: T4, human PAC1; assay: Filter binding assay, membranes of cells transiently transfected with human PAC1, 125I-labeled PACAP-27 tracer (Table 2); design: expressed in transfected cells; conditions: read-out: Human PAC1 Receptor Binding
Summary of the method: as §2

rat VPAC2 receptor [4] = molecular target: T5, rat VPAC2 receptor; assay: DiscoveRx in vitro potency, CHO-PO cells transiently transfected with rat VPAC 2 receptor DNA; assay type: cell-based; design: expressed in transfected cells; host or cells: CHO-PO, transient
Method: as §1

[5] = Rat serum stability studies (remaining active peptide by DiscoveRx cAMP on CHO-VPAC2 cells); assay type: in vitro ADME
Summary of the method: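 EC50 from a DiscoveRx cAMP read-out on CHO-VPAC2 cells indexes how much peptide stays active after 18 h in rat serum at 37° C without aprotinin, against an aprotinin-protected 4° C aliquot.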

rat VPAC2 receptor [6] = molecular target: T6, rat VPAC2 receptor; assay: IC50 on rat VPAC1 over IC50 on rat VPAC2
Description: Each assay is done in duplicate and performed on two different membrane preparations.
TABLE 3 Binding data are expressed as the IC₅₀ values of tracer inhibition. A different reference compound is used as the tracer for the VPAC1 receptor and for the VPAC2 receptor. The last column represents the ratio between the IC₅₀ values on VPAC1 and VPAC2 receptor and is, thus, an index of selectivity for a receptor subtype. […] The values are given with the standard error.

human VPAC2 receptor = molecular target: T7, human VPAC2 receptor; assay: cell-based or functional assay
rat VPAC2 receptor [7] = molecular target: T6, rat VPAC2 receptor; assay: cell-based or functional assay
rat VPAC1 receptor [8] = molecular target: T8, rat VPAC1 receptor; assay: cell-based or functional assay
rat VPAC2 receptor [9] = molecular target: T6, rat VPAC2 receptor; assay: cell-based or functional assay; remark: listed apart in the source
rat VPAC1 receptor [10] = molecular target: T8, rat VPAC1 receptor; assay: cell-based or functional assay; remark: listed apart in the source

Molecule | EC50 (rat VPAC1 receptor [1]) [nM] | IC50 (human VPAC2 [2]) [nM] | IC50 (human VPAC1) [nM] | EC50 (human VPAC2 [3]) [nM] | IC50 (human PAC1) [nM] | EC50 (rat VPAC2 receptor [4]) [nM] | Rat Serum Stability (Estimated purity in % after 72 hours) [5] [%] | Rat Serum Stability (estimated purity in % after 18 hours) [5] [%] | VPAC1/VPAC2 (ratio of IC50 values) (rat VPAC2 receptor [6]) | EC50 cAMP, Alpha Screen (human VPAC2 receptor) [nM] | EC50 cAMP, DiscoveRx (rat VPAC2 receptor [7]) [nM] | EC50 cAMP, DiscoveRx (rat VPAC1 receptor [8]) [nM] | VPAC1/VPAC2 (EC50 ratio) (rat VPAC2 receptor [9]) | cAMP max (rat VPAC2 receptor [9]) | cAMP max (rat VPAC1 receptor [10])
Hexanoyl-HSDAVFTDNYTRLR[Aib]QIAA[Aib]KYLQSIKNKRYGGPSSGAPPPS [Agonist P322] | 0.5 | 0.4 | > 3000 | 0.22 | > 25000 | 0.04 | 1.3 | 42.18 | – | – | – | – | – | – | –
Hexanoyl-HSDAVFTDNYTRLR[Aib]QLAAK[Aib]YLQSIKNKRYGGPSSGAPPPS [Agonist P284] | 0.44 | 0.38 | > 3000 | 0.18 | > 25000 | 0.07 | – | 27.89 | – | – | – | – | – | – | –
Hexanoyl-HSDAVFTDNYTRLR[Aib]QVAA[Aib]KYLQSIKNKRYGGPSSGAPPPS (ends and bridges not checked) [P261] | – | – | – | – | – | – | – | – | 363 | 0.09 | 0.04 | 0.35 | 200 | 78.5 | 126
